This passage reports IC50 results from ChEMBL document CHEMBL5241065, “If small molecules immunotherapy comes, can the prime be far behind?” (Eur J Med Chem, 2021).

pIC50: −log10 of the molar value.

In this assay the target is T1, Phosphatidylinositol 3,4,5-trisphosphate 5-phosphatase 1 (Homo sapiens, UniProt Q92835).
T1 sequence (Q92835 whole entry): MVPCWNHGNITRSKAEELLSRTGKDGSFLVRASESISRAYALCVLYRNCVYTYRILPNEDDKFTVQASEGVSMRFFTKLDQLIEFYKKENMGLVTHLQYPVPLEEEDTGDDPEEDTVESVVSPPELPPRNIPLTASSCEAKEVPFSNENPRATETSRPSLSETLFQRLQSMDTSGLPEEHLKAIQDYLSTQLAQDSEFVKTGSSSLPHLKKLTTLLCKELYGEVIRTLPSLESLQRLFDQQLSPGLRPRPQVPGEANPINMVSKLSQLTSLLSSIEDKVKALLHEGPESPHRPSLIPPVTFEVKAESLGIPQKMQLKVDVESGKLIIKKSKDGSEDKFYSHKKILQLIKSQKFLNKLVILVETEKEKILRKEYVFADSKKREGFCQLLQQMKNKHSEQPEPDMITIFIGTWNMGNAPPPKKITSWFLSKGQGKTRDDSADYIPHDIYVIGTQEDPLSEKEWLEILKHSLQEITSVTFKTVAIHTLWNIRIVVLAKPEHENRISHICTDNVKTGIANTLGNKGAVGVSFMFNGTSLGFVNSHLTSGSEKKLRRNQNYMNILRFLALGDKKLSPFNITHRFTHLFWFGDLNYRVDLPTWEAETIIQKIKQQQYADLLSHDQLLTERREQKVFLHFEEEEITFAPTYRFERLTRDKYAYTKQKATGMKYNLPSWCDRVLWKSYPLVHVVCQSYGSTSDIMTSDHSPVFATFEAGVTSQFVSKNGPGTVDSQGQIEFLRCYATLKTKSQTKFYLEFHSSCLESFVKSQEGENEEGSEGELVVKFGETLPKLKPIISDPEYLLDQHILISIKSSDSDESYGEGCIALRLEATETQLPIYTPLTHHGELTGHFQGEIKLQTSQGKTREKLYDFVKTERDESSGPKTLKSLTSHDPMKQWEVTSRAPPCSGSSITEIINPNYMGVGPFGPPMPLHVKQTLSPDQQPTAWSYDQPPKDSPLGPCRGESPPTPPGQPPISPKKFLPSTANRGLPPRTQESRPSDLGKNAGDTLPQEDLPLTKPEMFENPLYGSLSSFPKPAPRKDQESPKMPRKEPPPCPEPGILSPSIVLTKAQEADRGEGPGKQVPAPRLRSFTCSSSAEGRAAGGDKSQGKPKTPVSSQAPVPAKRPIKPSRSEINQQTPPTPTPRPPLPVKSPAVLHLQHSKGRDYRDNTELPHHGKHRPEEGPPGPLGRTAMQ
Nature of the assay: Inhibition of SHIP1 (unknown origin).

Consider `CC(C)CCC[C@@H](C)[C@H]1CC[C@H]2[C@]3(C)CC[C@H]4C[C@H](N)CC[C@]4(C)[C@H]3CC[C@@]21C`, for which the pIC50 (as a rule, the negative decadic logarithm of the IC50, by convention in mol/L) was 5.60.
